Values quoted from earlier work as cited in patent US20230226011A1, “Novel Pharmaceutical Composition Comprising Combination of Olopatadine and Nepafenac” (Zenvision Pharma LLP, priority 2020, published 2023).
Where a name gives a salt, the structure may show the parent alone.

Settings: for solubility in water: solvent water

Row | solubility in water | solubility in chloroform (solvent chloroform) | solubility in methanol (solvent methanol) | Compound
1 | practically insoluble |  |  | NC(=O)Cc1cccc(C(=O)c2ccccc2)c1N [Nepafenac, 2-amino-3-benzoylbenzeneacetamide]
2 | sparingly soluble | insoluble | sparingly soluble | CN(C)CC/C=C1/c2ccccc2COc2ccc(CC(=O)O)cc21 [Olopatadine hydrochloride, 11-[(Z)-3(Dimethylamino)propylidene]-6-11-dihydrodibenz[b,e] oxepin-2-acetic acid, hydrochloride]
